Reference: ChEMBL document CHEMBL2074379, “Possible involvement of organic anion transporter 2 on the interaction of theophylline with erythromycin in the human liver” (Drug Metab Dispos, 2005)

Key:
Type in all cases: functional, cell-based
Conditions in all cases: oocyte
[1] = target: T1, Solute carrier family 22 member 7 (Homo sapiens, UniProt Q9Y694); experiment: TP_TRANSPORTER: inhibition of theophylline uptake in OAT2-expressing oocytes
T1 sequence (Q9Y694 whole entry): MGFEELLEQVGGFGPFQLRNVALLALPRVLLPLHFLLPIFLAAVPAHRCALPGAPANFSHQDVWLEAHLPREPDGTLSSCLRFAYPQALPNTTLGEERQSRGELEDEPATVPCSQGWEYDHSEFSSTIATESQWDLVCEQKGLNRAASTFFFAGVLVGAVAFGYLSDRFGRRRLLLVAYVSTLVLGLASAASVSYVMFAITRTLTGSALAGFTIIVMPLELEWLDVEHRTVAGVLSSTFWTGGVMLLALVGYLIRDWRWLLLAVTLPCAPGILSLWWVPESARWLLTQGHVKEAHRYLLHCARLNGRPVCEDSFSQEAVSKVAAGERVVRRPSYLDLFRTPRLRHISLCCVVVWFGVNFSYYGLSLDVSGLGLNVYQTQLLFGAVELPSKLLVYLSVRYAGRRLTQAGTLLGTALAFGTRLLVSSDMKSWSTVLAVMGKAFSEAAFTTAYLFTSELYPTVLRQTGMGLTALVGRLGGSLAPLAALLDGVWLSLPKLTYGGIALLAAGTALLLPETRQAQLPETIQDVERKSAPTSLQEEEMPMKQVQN

[2] = target: T1, Solute carrier family 22 member 7; experiment: TP_TRANSPORTER: uptake in OAT2-expressing oocytes
[3] = target: T1, Solute carrier family 22 member 7; experiment: TP_TRANSPORTER: inhibition of erythromycin uptake in OAT2-expressing oocytes

Row | Activity [1] | SMILES | Activity [2] | Activity [3]
1 | inhibitor [] | CC[C@H]1OC(=O)[C@H](C)[C@@H](O[C@H]2C[C@@](C)(OC)[C@@H](O)[C@H](C)O2)[C@H](C)[C@@H](O[C@@H]2O[C@H](C)C[C@H](N(C)C)[C@H]2O)[C@](C)(OC)C[C@@H](C)C(=O)[C@H](C)[C@@H](O)[C@]1(C)O [CLARITHROMYCIN] | – | –
2 | inhibitor [] | CC[C@H]1OC(=O)[C@H](C)[C@@H](O[C@H]2C[C@@](C)(OC)[C@@H](O)[C@H](C)O2)[C@H](C)[C@@H](O[C@@H]2O[C@H](C)C[C@H](N(C)C)[C@H]2O)[C@](C)(O)C[C@@H](C)C(=O)[C@H](C)[C@@H](O)[C@]1(C)O [ERYTHROMYCIN] | substrate [] | –
3 | – | Cn1c(=O)c2[nH]cnc2n(C)c1=O.O [THEOPHYLLINE] | substrate [] | inhibitor []
